# Paper PMC11474028, “Lipopeptide antibiotics disrupt interactions of undecaprenyl phosphate with UptA” (Proceedings of the National Academy of Sciences of the …, 2024)
# How the values were obtained:
# UptA [1] = biological target: T1, UptA (Bacillus subtilis, UniProt O31823); assay: Native MS of antibiotic binding to UptA; details: 2.5 µM UptA, 10 µM C55-P, antibiotic up to 100 µM (polymyxins 100 µM), 0.05% LDAO, 200 mM ammonium acetate, 75 V
# Experimental: We next investigate how UptA and its complex with C55-P interact with a range of cell-wall targeting antibiotics including the lipopeptides daptomycin and amphomycin. […] We investigated whether daptomycin affects C55-P binding to UptA by recording spectra for solutions containing 2.5 µM UptA, 10 µM C55-P, and different concentrations of daptomycin.
# (§1) Amphomycin and derivatives are known to kill bacteria by forming complexes with free C55-P ([46]), however, whether or not this involves a direct interaction with a protein cellular target is not known. We therefore investigated how amphomycin affects the UptA:C55-P complex. We recorded spectra for solutions containing 2.5 µM UptA, 10 µM C55-P and then equilibrated aliquots with increasing concentrations of amphomycin.
# The amphiphilic nature of daptomycin and amphomycin raises the possibility that these lipopeptide antibiotics may promiscuously bind to UptA in a nonspecific manner. We probe this possibility by recording spectra for UptA:C55-P solutions in the presence of 100 µM polymyxin B and 100 µM polymyxin E. These polymyxins are membrane-disrupting lipopeptides that target the outer membrane lipopolysaccharides in Gram-negative bacteria ([47]) but without a known affinity for C55-P or UptA.
# To this end, we prepared UptA:C55-P mixtures and then equilibrated aliquots with bacitracin and vancomycin.
# (§2) Detailed experimental procedures are provided in SI Appendix. Briefly, UptA (wild type and mutants) was expressed in E. coli C43(DE3) cells (Lucigen) with GFP fusion on the C-terminus and solubilized from the membrane fraction by n-dodecyl-β-D-maltopyranoside (DDM). After purification by affinity chromatography, the GFP was cleaved by TEV protease and removed, and UptA was further purified by size-exclusion chromatography in a buffer containing 20 mM Tris-HCl (pH 8.0), 200 mM NaCl, 0.02% DDM. Before measurements, proteins were buffer-exchanged into 0.05% LDAO, 200 mM ammonium acetate at the desired pH using a centrifugal buffer exchange device (Micro Bio-Spin 6, Bio-Rad). Stock solutions of lipids were prepared from chloroform/methanol solution by evaporating aliquots of known volume in a SpeedVac. After drying, the lipid films were weighed and resuspended to a final concentration of 0.5 mM in 200 mM ammonium acetate and 0.05% LDAO by vertexing. Stock solutions of 0.5 mM amphomycin, aspartocin D, daptomycin, polymyxin B, polymyxin E, and bacitracin were made in the same buffer. All experiments were repeated three times from newly prepared stock solutions. Native mass spectrometry was performed on a Q-Exactive hybrid quadrupole-Orbitrap mass spectrometer (Thermo Fisher Scientific, Bremen, Germany), and lipid identification was performed on an Orbitrap Eclipse Tribrid mass spectrometer (Thermo). […]
# UptA:C55-P complex = assay: Native MS of UptA:C55-P complex in the presence of antibiotics; assay type: binding, Bacillus subtilis; details: 2.5 µM UptA, 10 µM C55-P, 0 to 100 µM antibiotic, 75 V; mean of three independent replicates
# Experimental: as §1
# (A) Mass spectra (6+ charge state) for solutions containing 2.5 µM UptA and 10 µM C55-P incubated with 0 to 100 µM amphomycin. (B) Relative intensity of C55-P bound to UptA in the presence of amphomycin and daptomycin. The bar represents the mean of three independent replicates shown as data points and error bars are SD. […] (C) Fraction of C55-P bound to UptA in the presence of cell wall targeting antibiotics. Each sample contains 2.5 µM UptA, 10 µM C55-P and 100 µM of indicated antibiotic, and spectra were acquired using the same instrument settings and collisional activation of 75 V. The bar represents the mean of three independent replicates shown as data points, and the error bar represents SD. […]
# as §2
# UptA [2] = biological target: T1, UptA; assay: biochemical; assay type: binding; details: for binding to UptA by lipid chain length (in words): 4 µM UptA, 10-fold molar excess (40 µM) of lipid, pH 8.0, 200 mM ammonium acetate, 0.05% LDAO
# Experimental: We explored the binding affinity of UptA toward C55-P by recording mass spectra for solutions containing 2.5 µM UptA and 0 to 40 µM C55-P in 200 mM ammonium acetate, 0.05% LDAO at pH 8.0. […] Further increase in the concentration of C55-P enhanced the intensity of the UptA:C55-P complex, together with the emergence of additional binding events (Fig. 2A). We deconvoluted the spectra ([34]) to extract mean relative intensities of bound and unbound forms of UptA in the spectral series.
# To investigate the binding selectivity of UptA for monophosphate (C55-P) versus diphosphate (C55-PP) forms of the lipid carrier, we performed comparative binding assays. First, we recorded mass spectra for a mixture of UptA with increasing concentrations of C55-PP (SI Appendix, Fig. S3). […] We then fit the data to Hill equation to obtain an apparent Kd for this system.
# UptA is a member of the DedA family of transporters whose cellular functions are potentially driven by proton-motive force and provide conditional fitness to bacteria under alkaline conditions ([25], [26], [36]). […] To this end, we equilibrated C55-P with UptA at a protein/ligand molar ratio of 1:4 in a buffer of the same composition but at pH 8.0 and 5.0. […] As a negative control, we tested for pH sensitivity of C55-P binding to MraY, the latter being the downstream enzyme in the peptidoglycan pathway that couples UM5 to C55-P. To this end, we equilibrated MraY and C55-P at a molar ratio of 1:4 in a buffer of pH 8.0 and pH 5.0.
# Next, we investigated the chain length selectivity of UptA by testing its interaction with geranylgeranyl phosphate (C20-P), hexaprenyl phosphate (C30-P), and C55-P; the latter representing the native form of the lipid carrier in the model organisms B. subtilis and E. coli ([39]). For this experiment, we incubated 4 µM UptA with a 10-fold molar excess of C20-P, C30-P, and C55-P at pH 8.0 and recorded spectra under the same conditions. […] The length and stereochemistry of lipid tails can influence their interactions with membrane proteins ([40]).
# Detailed experimental procedures are provided in SI Appendix. Briefly, UptA (wild type and mutants) was expressed in E. coli C43(DE3) cells (Lucigen) with GFP fusion on the C-terminus and solubilized from the membrane fraction by n-dodecyl-β-D-maltopyranoside (DDM). After purification by affinity chromatography, the GFP was cleaved by TEV protease and removed, and UptA was further purified by size-exclusion chromatography in a buffer containing 20 mM Tris-HCl (pH 8.0), 200 mM NaCl, 0.02% DDM. Before measurements, proteins were buffer-exchanged into 0.05% LDAO, 200 mM ammonium acetate at the desired pH using a centrifugal buffer exchange device (Micro Bio-Spin 6, Bio-Rad). Stock solutions of lipids were prepared from chloroform/methanol solution by evaporating aliquots of known volume in a SpeedVac. After drying, the lipid films were weighed and resuspended to a final concentration of 0.5 mM in 200 mM ammonium acetate and 0.05% LDAO by vertexing.
# UptA [3] = biological target: T1, UptA; assay: Native MS of phospholipid binding to UptA; details: for UptA-lipid complexes formed (stoichiometry, in words): 4 µM UptA with 10 µM lipid, native MS
# Description: Proteins belonging to the DedA family are a widespread family of transporters and are proposed to flip diverse lipids, including carrier lipids and membrane phospholipids. We therefore probed the interaction of UptA with membrane phospholipids to understand whether the latter could modulate its function. For this purpose, we selected anionic phosphatidylglycerols (PG) and zwitterionic phosphatidylethanolamines (PE), representing the major classes of phospholipid headgroups found in B. subtilis ([41], [42]). We recorded mass spectra of solutions containing 4 µM UptA incubated with 10 µM a15:0-i15:0 PE and 10 µM a15:0-i15:0 PG (a15:0, anteiso-pentadecanoic acid; i15:0, iso-pentadecanoic acid). The fatty acid composition of these lipids closely mimics those of native B. subtilis lipids (see below). The resulting spectra display peaks corresponding to UptA in apo and lipid-bound forms in both cases (Fig. 4 A and B). […] We therefore hypothesize that UptA interacts more favorably with PG than with PE.
# To verify the lipid binding preference of UptA with more native-like lipids, we prepared lipid extracts from B. subtilis membranes (Materials and Methods). We then incubate an aliquot of the resulting crude lipids (SI Appendix, Fig. S8) with UptA. The spectra yielded peaks assigned to UptA in complex with cardiolipins (~1,326 Da) and a range of phospholipids, predominantly 694 Da, 721 Da, 748 Da, and 776 Da species (Fig. 4 D and E). To identify these lipids, we performed tandem MS/MS, isolating the lipid species and subjecting it to collisional activation. […] The fatty acid fragments are mixed populations, predominantly 15:0-15:0, 15:0-17:0, 16:0-16:0, and 16:0-18:1 (SI Appendix, Fig. S9) which are the typical fatty acids from B. subtilis membrane phospholipids ([42]). We therefore conclude that UptA interacts more favorably with the anionic cardiolipins and phosphatidylglycerols than with the zwitterionic phosphatidylethanolamines in the membrane lipid extracts.
# as §2
# Lipid extracts from B. Subtilis
# B. subtilis strain 168 (ATCC 23857) was cultivated in […] LB media at 37 °C until OD600 nm 1.2 under aurobic conditions. Cells were harvested by centrifugation at 4,000 g for 20 minutes and resuspended in 20 mM Tris-HCl (pH 8.0), 150 mM NaCl. Cells were lysed by 5-6 passes through a microfluidizer at 20,000 psi. The lysates were clarified by centrifugation at 4,000 g for 10 minutes, and the totoal membrane was pelleted at 120,000 g for 1 h. The membrane pellet was ressupended […]
# T1 sequence (O31823 whole entry): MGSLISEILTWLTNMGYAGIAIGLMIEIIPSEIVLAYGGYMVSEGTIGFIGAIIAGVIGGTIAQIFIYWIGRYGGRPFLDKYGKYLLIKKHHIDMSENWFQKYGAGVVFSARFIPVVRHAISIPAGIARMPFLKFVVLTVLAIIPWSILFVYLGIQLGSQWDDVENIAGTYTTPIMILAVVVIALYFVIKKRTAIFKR
molecule,measurement,setting,value
polymyxin E,binding of antibiotic to UptA (in words),UptA [1],do not bind to UptA
same,effect of antibiotic on UptA:C55-P complex (in words),UptA:C55-P complex,"attenuation of C55-P binding to UptA (SI Appendix, Fig. S10), but this effect is less significant compared to the impact of amphomycin analogs"
"CC(C)=CCCC(C)=CCCC(C)=CCCC(C)=CCCC(C)=CCCC(C)=CCOP(=O)(O)O [C30-P, hexaprenyl phosphate]",binding to UptA by lipid chain length (in words),UptA [2],higher binding affinity of UptA to C30-P compared to C20-P
"CC(C)=CCC/C(C)=C/CC/C(C)=C/CC/C(C)=C/COP(=O)(O)O [C20-P, geranylgeranyl phosphate]",binding to UptA by lipid chain length (in words),UptA [2],"low-intensity peaks corresponding by mass to UptA:C20-P complexes, leaving most of the protein in the apo form"
CC[C@@H](C)CCCCCCCCCCC(=O)OC[C@H](COP(=O)([O-])OCC(O)CO)OC(=O)CCCCCCCCCCCC(C)C.[Na+] (stereo partly shown) [a15:0-i15:0 PG],"mean relative intensity of UptA in complex with phospholipid, comparison (in words)","UptA [3]; 4 µM UptA with 10 µM lipid (stated for a15:0-i15:0 lipids), mean of three independent replicates",higher than for a15:0-i15:0 PE
same,"UptA-lipid complexes formed (stoichiometry, in words)",UptA [3],1:1 and 1:2 protein-lipid complexes
CCC(C)CCCCCCCCCCC(=O)OC[C@H](COP(=O)(O)OCCN)OC(=O)CCCCCCCCCCCC(C)C (stereo partly shown) [a15:0-i15:0 PE],"UptA-lipid complexes formed (stoichiometry, in words)",UptA [3],only a 1:1 complex
vancomycin,binding of antibiotic to UptA (in words),UptA [1],bind to UptA but with very low intensities
same,effect of antibiotic on UptA:C55-P complex (in words),UptA:C55-P complex,no observable impact on C55-P binding
polymyxin B,binding of antibiotic to UptA (in words),UptA [1],do not bind to UptA
same,effect of antibiotic on UptA:C55-P complex (in words),UptA:C55-P complex,"attenuation of C55-P binding to UptA (SI Appendix, Fig. S10), but this effect is less significant compared to the impact of amphomycin analogs"
"CC(C)=CCC/C(C)=C/CC/C(C)=C/CC/C(C)=C\CC/C(C)=C\CC/C(C)=C\CC/C(C)=C\CC/C(C)=C\CC/C(C)=C\CC/C(C)=C\CC/C(C)=C\COP(=O)(O)OP(=O)(O)O [C55-PP, undecaprenyl diphosphate]",selectivity of UptA for C55-P versus C55-PP (in words),"UptA [2]; native MS, 200 mM ammonium acetate, pH 8, 0.05% LDAO",UptA bind C55-PP but with lesser intensities compared to C55-P
same,Kd,UptA [2]; read-out: apparent Kd for the binding of one ligand molecule (1×) to UptA,15.3 µM
